Test results published in patent US20120220564A1, “SELECTIVE CALCIUM CHANNEL MODULATORS” (Zalicus Pharmaceuticals Ltd., priority 2009, published 2012).

Legend:
[1] = tested on: Lamina I/II spinal cord neurons; assay: Lamina assay, current-clamp recordings in spinal cord slices; type: cell-based, rat; conditions: Lamina I and II neurons
Text: Male Wistar rats (P6 to P9 for voltage-clamp and P15 to P18 for current-clamp recordings) were anaesthetized through intraperitoneal injection of Inactin (Sigma). The spinal cord was then rapidly dissected out and placed in an ice-cold solution protective sucrose solution containing (in mM): 50 sucrose, 92 NaCl, 15 D-Glucose, 26 NaHCO3, 5 KCl, 1.25 NaH2PO4, 0.5 CaCl2, 7 MgSO4, 1 kynurenic acid, and bubbled with 5% CO2/95% O2. The meninges, dura, and dorsal and ventral roots were then removed from the lumbar region of the spinal cord under a dissecting microscope. The “cleaned” lumbar region of the spinal cord was glued to the vibratome stage and immediately immersed in ice cold, bubbled, sucrose solution. For current-clamp recordings, 300 to 350 μm parasagittal slices were cut to preserve the dendritic arbour of lamina I neurons, while 350 to 400 μm transverse slices were prepared for voltage-clamped […] channel recordings. Slices were allowed to recover for 1 hour at 35° C. in Ringer solution containing (in mM): 125 NaCl, 20 D-Glucose, 26 NaHCO3, 3 KCl, 1.25 NaH2PO4, 2 CaCl2, 1 MgCl2, 1 kynurenic acid, 0.1 picrotoxin, bubbled with 5% CO2/95% O2. The slice recovery chamber was then returned to room temperature (20 to 22° C.) and all recordings were performed at this temperature.
Neurons were visualized using IR-DIC optics (Zeiss Axioskop 2 FS plus, Gottingen, Germany), and neurons from lamina I and the outer layer of lamina II were selected based on their location relative to the substantia gelatinosa layer. Neurons were patch-clamped using borosilicate glass patch pipettes with resistances of […] Current-clamp recordings of lamina I/II neurons in the intact slice, the external recording solution was the above Ringer solution, while the internal patch pipette solution contained (in mM): 140 KGluconate, 4 NaCl, 10 HEPES, 1 EGTA, 0.5 MgCl2, 4 MgATP, 0.5 Na2GTP, adjusted to pH 7.2 with 5 M KOH and to 290 mOsm with D-Mannitol (if necessary). […]

[2] = target: T1, α1G (CaV 3.1) (Homo sapiens, UniProt O43497); assay: T-type calcium channel block, whole cell patch clamp; type: cell-based; conditions: HEK cells, mainly non-inactivated protocol; values above 10,000 nM represented as 10000
T1 construct: expressed in transfected cells; host or cells: HEK 293
T1 sequence (O43497 whole entry): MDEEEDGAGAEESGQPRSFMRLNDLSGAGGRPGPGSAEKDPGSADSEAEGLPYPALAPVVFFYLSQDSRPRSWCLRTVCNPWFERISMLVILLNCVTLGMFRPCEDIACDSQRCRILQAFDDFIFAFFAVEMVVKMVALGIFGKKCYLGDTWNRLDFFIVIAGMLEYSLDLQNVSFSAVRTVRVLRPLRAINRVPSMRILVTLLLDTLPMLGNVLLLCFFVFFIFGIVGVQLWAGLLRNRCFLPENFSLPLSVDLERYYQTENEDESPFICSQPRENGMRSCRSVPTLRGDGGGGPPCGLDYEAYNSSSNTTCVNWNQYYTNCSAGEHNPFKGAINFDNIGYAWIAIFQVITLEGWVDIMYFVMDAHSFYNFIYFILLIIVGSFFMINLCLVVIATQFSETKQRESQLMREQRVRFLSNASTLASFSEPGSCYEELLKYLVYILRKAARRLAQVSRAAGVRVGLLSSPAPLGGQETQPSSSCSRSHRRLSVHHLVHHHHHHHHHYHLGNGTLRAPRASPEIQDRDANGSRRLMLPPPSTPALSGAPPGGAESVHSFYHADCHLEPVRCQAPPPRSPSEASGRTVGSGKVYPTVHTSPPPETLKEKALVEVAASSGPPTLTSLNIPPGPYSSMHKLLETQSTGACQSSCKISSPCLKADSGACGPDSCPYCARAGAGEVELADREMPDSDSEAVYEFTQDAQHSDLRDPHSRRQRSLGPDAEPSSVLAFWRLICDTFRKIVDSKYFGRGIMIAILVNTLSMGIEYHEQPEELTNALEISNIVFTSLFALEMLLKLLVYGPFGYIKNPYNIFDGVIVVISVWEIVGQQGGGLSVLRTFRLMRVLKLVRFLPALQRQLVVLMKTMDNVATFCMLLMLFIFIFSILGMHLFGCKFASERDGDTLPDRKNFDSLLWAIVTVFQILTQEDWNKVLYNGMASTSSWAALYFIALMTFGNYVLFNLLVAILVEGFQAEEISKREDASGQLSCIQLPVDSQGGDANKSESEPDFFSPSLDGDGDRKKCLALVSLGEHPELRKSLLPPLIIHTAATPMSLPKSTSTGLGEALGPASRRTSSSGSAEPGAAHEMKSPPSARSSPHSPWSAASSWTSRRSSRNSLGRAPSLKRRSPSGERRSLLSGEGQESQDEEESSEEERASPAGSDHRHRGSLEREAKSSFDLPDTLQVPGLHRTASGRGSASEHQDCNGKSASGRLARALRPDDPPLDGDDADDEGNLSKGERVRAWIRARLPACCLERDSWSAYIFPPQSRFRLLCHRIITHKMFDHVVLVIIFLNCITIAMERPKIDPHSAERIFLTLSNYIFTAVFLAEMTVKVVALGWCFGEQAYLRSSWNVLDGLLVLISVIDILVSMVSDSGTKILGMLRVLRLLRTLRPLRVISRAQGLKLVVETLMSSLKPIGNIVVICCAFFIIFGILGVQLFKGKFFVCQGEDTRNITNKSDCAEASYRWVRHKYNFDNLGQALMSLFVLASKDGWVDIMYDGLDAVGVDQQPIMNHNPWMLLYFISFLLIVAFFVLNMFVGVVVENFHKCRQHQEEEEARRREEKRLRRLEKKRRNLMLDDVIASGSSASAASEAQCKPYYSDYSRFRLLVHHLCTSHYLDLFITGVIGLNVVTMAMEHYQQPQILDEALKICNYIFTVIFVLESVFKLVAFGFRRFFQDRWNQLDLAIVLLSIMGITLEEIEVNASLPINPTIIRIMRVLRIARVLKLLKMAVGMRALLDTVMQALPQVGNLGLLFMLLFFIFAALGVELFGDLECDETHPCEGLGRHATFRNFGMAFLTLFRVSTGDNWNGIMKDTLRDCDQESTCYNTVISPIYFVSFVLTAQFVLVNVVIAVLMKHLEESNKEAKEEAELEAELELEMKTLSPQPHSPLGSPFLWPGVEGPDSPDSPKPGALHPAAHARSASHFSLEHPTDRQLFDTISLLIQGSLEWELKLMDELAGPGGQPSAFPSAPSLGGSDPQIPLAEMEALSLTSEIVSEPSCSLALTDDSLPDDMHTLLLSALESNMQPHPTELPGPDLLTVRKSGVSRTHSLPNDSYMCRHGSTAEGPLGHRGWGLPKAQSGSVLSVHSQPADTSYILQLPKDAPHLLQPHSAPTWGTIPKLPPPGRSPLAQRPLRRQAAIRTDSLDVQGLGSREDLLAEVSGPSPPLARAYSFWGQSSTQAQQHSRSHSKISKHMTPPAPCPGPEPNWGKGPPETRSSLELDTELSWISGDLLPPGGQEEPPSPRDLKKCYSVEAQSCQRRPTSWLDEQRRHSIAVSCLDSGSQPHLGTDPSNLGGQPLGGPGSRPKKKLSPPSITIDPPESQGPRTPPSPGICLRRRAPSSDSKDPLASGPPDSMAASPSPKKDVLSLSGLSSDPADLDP
Summary of the method: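 HEK293 cells stably expressing human T-type channels, whole-cell patch clamp; compounds in external solution with 0.1-0.01% DMSO, applied by gravity. Mainly non-inactivating protocol: holding −110 mV, 1 s pre-pulse −100 mV, 50 ms test pulse −40 mV (inactivated protocol uses ~−85 mV pre-pulse); IC50 reported.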

[3] = target: hERG K+ channel (Homo sapiens, UniProt Q12809); assay: hERG activity
hERG K+ channel, sequence (Q12809 whole entry): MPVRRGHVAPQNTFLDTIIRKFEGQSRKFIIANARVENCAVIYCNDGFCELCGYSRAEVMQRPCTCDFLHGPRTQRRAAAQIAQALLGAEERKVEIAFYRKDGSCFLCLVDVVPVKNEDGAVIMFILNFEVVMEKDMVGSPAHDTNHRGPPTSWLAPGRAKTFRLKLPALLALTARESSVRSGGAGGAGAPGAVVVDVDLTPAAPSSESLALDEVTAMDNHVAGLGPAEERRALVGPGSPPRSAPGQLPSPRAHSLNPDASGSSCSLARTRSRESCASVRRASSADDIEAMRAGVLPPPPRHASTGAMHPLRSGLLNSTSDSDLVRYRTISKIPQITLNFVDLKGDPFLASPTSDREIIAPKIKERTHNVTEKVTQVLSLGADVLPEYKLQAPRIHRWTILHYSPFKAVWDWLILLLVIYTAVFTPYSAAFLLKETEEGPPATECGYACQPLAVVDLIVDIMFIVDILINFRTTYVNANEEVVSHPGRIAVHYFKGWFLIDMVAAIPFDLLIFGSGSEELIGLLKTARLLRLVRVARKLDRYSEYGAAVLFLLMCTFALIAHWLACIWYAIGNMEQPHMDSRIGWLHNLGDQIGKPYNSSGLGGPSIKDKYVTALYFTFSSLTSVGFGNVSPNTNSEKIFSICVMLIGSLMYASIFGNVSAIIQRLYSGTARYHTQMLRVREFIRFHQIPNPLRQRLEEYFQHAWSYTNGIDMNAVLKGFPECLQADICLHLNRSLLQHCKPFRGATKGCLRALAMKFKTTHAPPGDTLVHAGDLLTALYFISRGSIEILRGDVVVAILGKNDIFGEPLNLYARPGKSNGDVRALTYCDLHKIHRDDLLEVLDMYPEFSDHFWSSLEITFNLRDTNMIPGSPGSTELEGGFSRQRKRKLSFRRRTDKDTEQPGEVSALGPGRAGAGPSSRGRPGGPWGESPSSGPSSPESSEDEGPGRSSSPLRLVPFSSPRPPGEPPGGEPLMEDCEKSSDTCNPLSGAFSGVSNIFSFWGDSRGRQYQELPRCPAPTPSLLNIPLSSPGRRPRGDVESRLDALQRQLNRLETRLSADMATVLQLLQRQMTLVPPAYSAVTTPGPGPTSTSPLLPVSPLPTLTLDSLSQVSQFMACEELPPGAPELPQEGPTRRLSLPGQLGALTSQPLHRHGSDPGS
Text: (§1) In addition to being able to modulate a particular calcium channel (e.g., CaV 3.1, CaV 3.2, or CaV 3.3), it may be desirable that the compound has very low activity with respect to the hERG K^+ channel, which is expressed in the heart: compounds that block this channel with high potency may cause reactions which are fatal. See, e.g., Bowlby et al., “hERG (KCNH2 or KV11.1 K^+ Channels: Screening for Cardiac Arrhythmia Risk,” Curr. Drug Metab. 9(9):965-70 (2008)). […] Such compounds may be particularly useful in the methods described herein.

[4] = target: CYP2C9 (Homo sapiens, UniProt P11712); assay: cytochrome inhibition; type: in vitro ADME; conditions: read-out: inhibition of cytochrome 2C9
CYP2C9, sequence (P11712 whole entry): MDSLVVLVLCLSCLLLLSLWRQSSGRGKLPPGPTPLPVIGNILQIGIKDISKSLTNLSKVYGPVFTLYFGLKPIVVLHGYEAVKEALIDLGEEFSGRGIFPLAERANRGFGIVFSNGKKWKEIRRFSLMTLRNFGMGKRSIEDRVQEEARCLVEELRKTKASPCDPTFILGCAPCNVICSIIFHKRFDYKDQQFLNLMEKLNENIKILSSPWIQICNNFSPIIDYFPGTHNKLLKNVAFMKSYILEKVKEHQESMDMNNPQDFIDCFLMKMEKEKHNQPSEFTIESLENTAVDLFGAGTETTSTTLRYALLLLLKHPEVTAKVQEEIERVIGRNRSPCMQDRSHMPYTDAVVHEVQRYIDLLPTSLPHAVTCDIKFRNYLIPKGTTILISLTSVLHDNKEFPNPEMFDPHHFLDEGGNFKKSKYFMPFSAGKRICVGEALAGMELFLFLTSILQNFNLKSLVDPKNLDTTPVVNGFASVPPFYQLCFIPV
Text: as §1

[5] = target: CYP3A4 (Homo sapiens, UniProt P08684); assay: cytochrome inhibition; type: in vitro ADME; conditions: read-out: inhibition of cytochrome 3A4
CYP3A4, sequence (P08684 whole entry): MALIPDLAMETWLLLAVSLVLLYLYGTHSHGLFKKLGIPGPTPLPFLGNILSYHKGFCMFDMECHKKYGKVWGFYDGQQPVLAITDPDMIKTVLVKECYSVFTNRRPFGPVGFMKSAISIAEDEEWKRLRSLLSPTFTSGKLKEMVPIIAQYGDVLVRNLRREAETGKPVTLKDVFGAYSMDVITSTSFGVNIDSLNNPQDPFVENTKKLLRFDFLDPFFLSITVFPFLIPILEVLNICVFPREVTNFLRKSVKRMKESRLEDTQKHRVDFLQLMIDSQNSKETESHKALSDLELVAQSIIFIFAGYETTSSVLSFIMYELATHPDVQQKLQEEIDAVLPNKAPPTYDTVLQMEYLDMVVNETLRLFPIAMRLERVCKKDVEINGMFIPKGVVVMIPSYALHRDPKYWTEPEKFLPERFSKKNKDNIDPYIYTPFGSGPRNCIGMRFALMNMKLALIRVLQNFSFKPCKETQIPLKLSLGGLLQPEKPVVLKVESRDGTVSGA
Text: as §1

[6] = tested on: 6 Hz psychomotor seizure; assay: 6 Hz psychomotor seizure model of partial epilepsy; type: in vivo, mice; set-up: concentration or dose not given beside the values
Summary of the method: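 Male CF1 mice (20-30 g) given corneal stimulation: 6 Hz, 0.2 ms rectangular pulses, 3 s, 32 mA (CC97). Protection scored as absence of stun, forelimb clonus, vibrissae twitching or Straub-tail immediately after stimulation.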

**Q.** Which results are given for `N[C@@H]1CCCC[C@H]1C(=O)N1CCC(CC(=O)Nc2cc(C(F)(F)F)cc(C(F)(F)F)c2)CC1` (racemic) [Compound 3, trans-2-(1-(2-aminocyclohexanecarbonyl)piperidin-4-yl)-N-(3,5-bis(trifluoromethyl)phenyl)acetamide]?
**A.** % Spike Change Mean [1]: −51.1%; IC50 [2]: > 10 µM; hERG activity [3]: negligible; inhibition at 10 micromolar [4]: < 10%; inhibition at 10 micromolar [5]: < 10%; Epilepsy 6 Hz (% Protected) ([6]; 0.25 hr): 100%; Epilepsy 6 Hz (% Protected) ([6]; 0.5 hr): 75%; Epilepsy 6 Hz (% Protected) ([6]; 1 hr): 100%; Epilepsy 6 Hz (% Protected) ([6]; 2 hr): 0%; Epilepsy 6 Hz (% Protected) ([6]; 4 hr): 50%

**Q.** With “N-(3,5- bis(trifluoromethyl) phenyl)-2-(1- (piperidine-3- carbonyl)piperidin-4- yl)acetamide [Compound 2]” as the compound, how does the “% Spike Change Mean” value [1] read?
**A.** −57.2%

**Q.** And the “Epilepsy 6 Hz (% Protected)” value ([6]; 0.25 hr)?
**A.** 50%

**Q.** And the “Epilepsy 6 Hz (% Protected)” value ([6]; 0.5 hr)?
**A.** 50%

**Q.** What about the “Epilepsy 6 Hz (% Protected)” value ([6]; 1 hr) of the same compound?
**A.** 100%

**Q.** And the “Epilepsy 6 Hz (% Protected)” value ([6]; 2 hr)?
**A.** 33%

**Q.** What about the “Epilepsy 6 Hz (% Protected)” value ([6]; 4 hr) of the same compound?
**A.** 0%
